Target: IgE-Tb / FcεRIα-Y131A-AF488 (Homo sapiens, UniProt P01854)
Assay: IgE-Tb / FcεRIα-Y131A-AF488 FRET assay (protocol for examples 1 to 233)
Type: binding
Conditions: examples 1 to 233: 5 nM IgE-Tb, 25 nM FcεRIα-Y131A-AF488, incubated 2 hours at room temperature; read-out: Y131A FRET IC50 range
Outline: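 Compounds (top final concentration usually 10 μM, 3-fold, 10 points, 2% DMSO) incubated 2 h at room temperature with IgE-Tb (5 nM) and FcεRIα-Y131A-AF488 (25 nM). Background from 200 nM unlabelled receptor subtracted; FRET ratio 520/495 nm after 330 nm excitation gave percent inhibition, fitted four-parameter for IC50.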

IgE-Tb / FcεRIα-Y131A-AF488, sequence (P01854 1-427 limits assumed, stated change not applied): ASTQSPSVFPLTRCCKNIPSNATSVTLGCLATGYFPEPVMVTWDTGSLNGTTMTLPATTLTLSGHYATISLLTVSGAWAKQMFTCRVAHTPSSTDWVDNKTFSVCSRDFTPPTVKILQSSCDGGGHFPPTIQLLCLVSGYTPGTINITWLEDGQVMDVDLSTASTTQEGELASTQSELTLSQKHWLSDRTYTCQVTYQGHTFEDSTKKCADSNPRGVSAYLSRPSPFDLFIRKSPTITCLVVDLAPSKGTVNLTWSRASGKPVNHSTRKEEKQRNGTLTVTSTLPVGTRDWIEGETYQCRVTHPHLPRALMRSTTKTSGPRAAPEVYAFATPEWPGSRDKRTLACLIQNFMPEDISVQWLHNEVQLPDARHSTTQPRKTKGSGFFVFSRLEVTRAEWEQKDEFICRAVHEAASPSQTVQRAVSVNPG

Row | SMILES | IC50 [nM]
1 | CCNc1nnnn1C1CCc2sc(NC(=O)C3CC3)c(C(=O)NCC3CC3)c2C1 (stereo not drawn) [Example 160, 2-(Cyclopropanecarbonylamino)-N-(cyclopropylmethyl)-5-[5-(ethylamino)tetrazol-1-yl]-4,5,6,7-tetrahydrobenzothiophene-3-carboxamide] | < 1000
2 | CCc1c(N[C@H]2CCc3sc(NC(=O)C4CC4)c(C(=O)NCC4CC4)c3C2)c(=O)c1=O (single isomer, unassigned) [Example 190] | < 1000
3 | Cc1cc(Nc2nncn2C2CCc3sc(NC(=O)C4CC4)c(C(=O)NC4CC(F)C4)c3C2)n(C)n1 (stereo not drawn) [Example 193, 2-(cyclopropanecarbonylamino)-5-[3-[(2,5-dimethylpyrazol-3-yl)amino]-1,2,4-triazol-4-yl]-N-(3-fluorocyclobutyl)-4,5,6,7-tetrahydrobenzothiophene-3-carboxamide] | < 1000
4 | COc1ccc(NC(=O)NC2CCc3sc(NC(=O)C4CC4)c(C(=O)NCC(C)C)c3C2)cc1 (stereo not drawn) [Example 209, 2-(Cyclopropanecarbonylamino)-N-isobutyl-5-[(4-methoxyphenyl)carbamoylamino]-4,5,6,7-tetrahydrobenzothiophene-3-carboxamide] | < 1000
5 | O=C(NCC1CC1)c1c(NC(=O)C2CC2)sc2c1CC(C(=O)N1CC(O)C1)CC2 (stereo not drawn) [Example 55, 2-(Cyclopropanecarbonylamino)-N-(cyclopropylmethyl)-5-(3-hydroxyazetidine-1-carbonyl)-4,5,6,7-tetrahydrobenzothiophene-3-carboxamide] | 10000 to 50000
6 | O=C(OCC1CC1)c1c(NC(=O)C2CC2)sc2c1CC(n1cnnc1Nc1cccnc1)CC2 (stereo not drawn) [Example 94, Cyclopropylmethyl 2-(cyclopropanecarbonylamino)-5-[3-(3-pyridylamino)-1,2,4-triazol-4-yl]-4,5,6,7-tetrahydrobenzothiophene-3-carboxylate] | < 1000
7 | CCCNS(=O)(=O)c1c(NC(=O)C2CC2)sc2c1CC(NC(=O)Nc1ccc(OC)cc1)CC2 (stereo not drawn) [Example 26, N-[5-[(4-Methoxyphenyl)carbamoylamino]-3-(propylsulfamoyl)-4,5,6,7-tetrahydrobenzothiophen-2-yl]cyclopropanecarboxamide] | < 1000
8 | Cn1nccc1Nc1nncn1[C@H]1CCc2sc(NC(=O)C3CC3)c(C(=O)NCC3CC3)c2C1 [Example 224, (5S)-2-(cyclopropanecarbonylamino)-N-(cyclopropylmethyl)-5-[3-[(2-methylpyrazol-3-yl)amino]-1,2,4-triazol-4-yl]-4,5,6,7-tetrahydrobenzothiophene-3-carboxamide] | < 1000
9 | Cc1ccc(NC(=C[N+](=O)[O-])NC2CCc3sc(NC(=O)C4CC4)c(C(=O)NCC4CC4)c3C2)cc1 (stereo not drawn) [Example 135, 2-(cyclopropanecarbonylamino)-N-(cyclopropylmethyl)-5-[[1-(4-methylanilino)-2-nitro-vinyl]amino]-4,5,6,7-tetrahydrobenzothiophene-3-carboxamide] | < 1000
10 | COc1ccc(CCNC(=O)C2CCc3sc(NC(=O)C4CC4)c(C(=O)NCC4CC4)c3C2)cc1 (stereo not drawn) [Example 48, 2-(Cyclopropanecarbonylamino)-N3-(cyclopropylmethyl)-N5-[2-(4-methoxyphenyl)ethyl]-4,5,6,7-tetrahydrobenzothiophene-3,5-dicarboxamide] | < 1000
11 | Cn1cc(-n2cnnc2N[C@H]2CCc3sc(NC(=O)C4CC4)c(C(=O)NCC4CC4)c3C2)cn1 [Example 163, (5S)-2-(Cyclopropanecarbonylamino)-N-(cyclopropylmethyl)-5-[[4-(1-methylpyrazol-4-yl)-1,2,4-triazol-3-yl]amino]-4,5,6,7-tetrahydrobenzothiophene-3-carboxamide] | 1000 to 10000
12 | O=C(Nc1sc2c(c1C(=O)N1CCCCC1)CCCC2)C1CC1 [Example 78, N-[3-(Piperidine-1-carbonyl)-4,5,6,7-tetrahydrobenzothiophen-2-yl]cyclopropanecarboxamide] | 1000 to 10000
13 | CC(C)C(=O)Nc1nncn1[C@H]1CCc2sc(NC(=O)C3CC3)c(C(=O)NCC3CC3)c2C1 [Example 213, (5S)-2-(cyclopropanecarbonylamino)-N-(cyclopropylmethyl)-5-[3-(2-methylpropanoylamino)-1,2,4-triazol-4-yl]-4,5,6,7-tetrahydrobenzothiophene-3-carboxamide] | < 1000
14 | O=C(Nc1sc2c(c1C(=O)N1CCC3(CC3)C1)CC(n1cnnc1Nc1cccnc1)CC2)C1CC1 (single isomer, unassigned) [Example 128] | < 1000
15 | Cc1ccc(Nc2c(NC3CCc4sc(NC(=O)C5CC5)c(C(=O)NCC5CC5)c4C3)c(=O)c2=O)cc1 (stereo not drawn) [Example 137, 2-(Cyclopropanecarbonylamino)-N-(cyclopropylmethyl)-5-[[2-(4-methylanilino)-3,4-dioxo-cyclobuten-1-yl]amino]-4,5,6,7-tetrahydrobenzothiophene-3-carboxamide] | < 1000
16 | COCC(=O)N1CCc2sc(NC(=O)C3CC3)c(C(=O)NCC3CC3)c2C1 [Example 8, 2-(Cyclopropanecarbonylamino)-N-(cyclopropylmethyl)-5-(2-methoxyacetyl)-6,7-dihydro-4H-thieno[3,2-c]pyridine-3-carboxamide] | 10000 to 50000
17 | O=C(NCC1CC1)c1c(NC(=O)C2CC2)sc2c1CC(n1ccnc1Nc1ccccc1)CC2 (stereo not drawn) [Example 155, 5-(2-Anilinoimidazol-1-yl)-2-(cyclopropanecarbonylamino)-N-(cyclopropylmethyl)-4,5,6,7-tetrahydrobenzothiophene-3-carboxamide] | < 1000
18 | Cc1cc(Nc2nncn2[C@H]2CCc3sc(NC(=O)C4CC4)c(C(=O)NCC4CC4)c3C2)n(C)n1 [Example 106, (5S)-2-(Cyclopropanecarbonylamino)-N-(cyclopropylmethyl)-5-[3-[(2,5-dimethylpyrazol-3-yl)amino]-1,2,4-triazol-4-yl]-4,5,6,7-tetrahydrobenzothiophene-3-carboxamide] | < 1000
19 | O=C(NCC1CC1)c1c(NC(=O)C2CC2)sc2c1CC(c1nc3nccnc3[nH]1)CC2 (stereo not drawn) [Example 46, 2-(Cyclopropanecarbonylamino)-N-(cyclopropylmethyl)-5-(1H-imidazo[4,5-b]pyrazin-2-yl)-4,5,6,7-tetrahydrobenzothiophene-3-carboxamide] | < 1000
20 | O=C(NCC1CC1)c1c(NC(=O)C2CC2)sc2c1CC(C(=O)Nc1cnccn1)CC2 (stereo not drawn) [Example 53, 2-(Cyclopropanecarbonylamino)-N3-(cyclopropylmethyl)-N5-pyrazin-2-yl-4,5,6,7-tetrahydrobenzothiophene-3,5-dicarboxamide] | < 1000
21 | O=C(NCC1CC1)c1c(NC(=O)C2CC2)sc2c1CN(C(=O)Cc1ccccc1)CC2 [Example 9, 2-(Cyclopropanecarbonylamino)-N-(cyclopropylmethyl)-5-(2-phenylacetyl)-6,7-dihydro-4H-thieno[3,2-c]pyridine-3-carboxamide] | 10000 to 50000
22 | O=C(NCC1CC1)c1c(NC(=O)C2CC2)sc2c1CC(Nc1nc3ccccc3o1)CC2 (stereo not drawn) [Example 183, 5-(1,3-Benzoxazol-2-ylamino)-2-(cyclopropanecarbonylamino)-N-(cyclopropylmethyl)-4,5,6,7-tetrahydrobenzothiophene-3-carboxamide] | < 1000
23 | CCCNC(=O)c1c(NC(=O)C2CC2)sc2c1CC(NC(=O)Nc1ccc(OC(F)(F)F)cc1)CC2 (stereo not drawn) [Example 212, 2-(Cyclopropanecarbonylamino)-N-propyl-5-[[4-(trifluoromethoxy)phenyl]carbamoylamino]-4,5,6,7-tetrahydrobenzothiophene-3-carboxamide] | < 1000
24 | CCNC(=O)C1CCc2sc(NC(=O)C3CC3)c(S(=O)(=O)NCC(C)C)c2C1 (stereo not drawn) [Example 28, 2-(Cyclopropanecarbonylamino)-N-ethyl-3-(isobutylsulfamoyl)-4,5,6,7-tetrahydrobenzothiophene-5-carboxamide] | < 1000
25 | Cc1cc(-n2cnnc2N[C@H]2CCc3sc(NC(=O)C4CC4)c(C(=O)NCC4CC4)c3C2)n(C)n1 [Example 107, (5S)-2-(Cyclopropanecarbonylamino)-N-(cyclopropylmethyl)-5-[[4-(2,5-dimethylpyrazol-3-yl)-1,2,4-triazol-3-yl]amino]-4,5,6,7-tetrahydrobenzothiophene-3-carboxamide] | 1000 to 10000
26 | CC(C)(C)OC(=O)NC1CCCc2c1sc(NC(=O)C1CC1)c2C(=O)NCC1CC1 (stereo not drawn) [Example 97, tert-Butyl N-[2-(cyclopropanecarbonylamino)-3-(cyclopropylmethylcarbamoyl)-4,5,6,7-tetrahydrobenzothiophen-7-yl]carbamate] | 1000 to 10000
27 | CS(=O)(=O)N1CCc2sc(NC(=O)C3CC3)c(C(=O)NCC3CC3)c2C1 [Example 4, 2-(Cyclopropanecarbonylamino)-N-(cyclopropylmethyl)-5-methylsulfonyl-6,7-dihydro-4H-thieno[3,2-c]pyridine-3-carboxamide] | 10000 to 50000
28 | CC1=NN(c2cccc(NC(=O)C3CCc4sc(NC(=O)C5CC5)c(C(=O)NCC5CC5)c4C3)c2)C(=O)C1 (stereo not drawn) [Example 43, 2-(Cyclopropanecarbonylamino)-N3-(cyclopropylmethyl)-N5-[3-(3-methyl-5-oxo-4H-pyrazol-1-yl)phenyl]-4,5,6,7-tetrahydrobenzothiophene-3,5-dicarboxamide] | < 1000
29 | Nc1nccn1[C@H]1CCc2sc(NC(=O)C3CC3)c(C(=O)NCC3CC3)c2C1 [Example 186, (5S)-5-(2-Aminoimidazol-1-yl)-2-(cyclopropanecarbonylamino)-N-(cyclopropylmethyl)-4,5,6,7-tetrahydrobenzothiophene-3-carboxamide] | < 1000
30 | CCOC(=O)N=C(Nc1ccc(C)cc1)NC1CCc2sc(NC(=O)C3CC3)c(C(=O)NCC3CC3)c2C1 (stereo not drawn) [Example 149, ethyl N-[[[2-(cyclopropanecarbonylamino)-3-(cyclopropylmethylcarbamoyl)-4,5,6,7-tetrahydrobenzothiophen-5-yl]amino]-(4-methylanilino)methylene]carbamate] | < 1000

— patent publication US12018021B2 (UCB Biopharma SRL, priority 2018, dated 2024)
